# Test results as given in patent publication US20250144066A1, “Prevention and Treatment of Parasitic Infections” (priority 2017, published 2025).
# Columns and labels:
# [1] = Neutral Red toxicity in Vero 76 cells, 4 h pre-incubation (Zika-138); details: monkey
# [2] = Neutral Red toxicity in Huh7 cells, 4 h pre-incubation (Zika-138); details: human
# [3] = test system: Rift Valley fever virus MP-12; assay: microbe, parasite or virus in culture; type: cell-based; details: for EC50: Rift Valley fever virus, Vero76
# [4] = test system: human norovirus (NV, GT1); assay: Human norovirus replicon, qPCR, HG23, secondary (17-14); type: cell-based; details: Norovirus
# From the text: (§1) Secondary testing was done with human norovirus.
# [5] = test system: human norovirus (NV, GT1); assay: Human norovirus replicon, RNA Hybridization, HG23, primary (16-21); type: cell-based
# From the text: as §1
smiles,measurement,setting,value
"COc1c(C)c2c(c(O)c1C/C=C(\C)CCC(=O)O)C(=O)OC2 [EP1601, 6-(4-hydroxy-6-methoxy-7-methyl-3-oxo-1,3-dihydroisobenzofuran-5-yl)-4-methyl-hex-4-enoic acid]",CC50,[1],> 100 mg/L
same,CC50,[2],> 100 mg/L
same,activity against Rift Valley,[3],active
same,EC50,"[3]; Vero 76, Neutral Red (Cytopathic effect)",4 mg/L
same,EC50,"[3]; Vero 76, Visual (Cytopathic effect)",3.1 mg/L
same,EC50,[4],0.219 µM
same,EC90,[4],1.1 µM
same,EC50,"[5]; Norovirus, GT1, HG23",0.151 µM
same,EC90,"[5]; Norovirus, GT1, HG23",1.3 µM
same,activity against Norovirus,[5]; three in vitro tests (human and mouse norovirus),active
